From ChEMBL document CHEMBL3792288, “VP1 crystal structure-guided exploration and optimization of 4,5-dimethoxybenzene-based inhibitors of rhinovirus 14 infection” (Eur J Med Chem, 2016) come the findings set out here.

The test system of one series is Rhinovirus B. The series is described as follows: Antiviral activity against Human Rhinovirus B serotype 14 infected in HeLa Rh cells assessed as reduction of virus-induced cytopathic effect after 3 days by MTS assay. The series is classed as functional, organism-based. To be noted: serotype 14, HeLa Rh, 72 h. Background: Protection from cytopathic effect is a common read-out in antiviral testing.

The nature of series [1]: Cytotoxicity against human HeLa Rh cells assessed as cell viability by light microscopy. The format is cell-based.
The next series has as its system Rhinovirus A. Nature of the series: Antiviral activity against Human Rhinovirus A serotype 2 infected in HeLa Rh cells assessed as reduction of virus-induced cytopathic effect after 3 days by MTS assay. The series is classed as functional, cell-based.
Series [2] in a line: Selectivity index, ratio of CC50 for human HeLa Rh cells to EC50 for Human Rhinovirus B serotype 14 infected in HeLa Rh cells. The format is toxicity, cell-based. The conditions noted are these: read-out: Ratio CC50/EC50.

Active and inactive are the calls of the source. The rule behind the calls is not given here.

The term EC50 denotes the concentration needed to bring the measured effect to its halfway point. In general, CC50 refers to the concentration giving 50% cytotoxicity. In the case of `COc1cc(CC(O)c2ccc(-c3ccc(F)cc3)cc2)c([N+](=O)[O-])cc1OC` (stereo not drawn), in the series with Rhinovirus B, the EC50 was more than 4.5 µM. For the same compound, the CC50 in series [1] amounted to 4.5 µM. Moreover, the result in the series with Rhinovirus A was inactive.

For `COc1cc(CC(O)c2ccc(-c3ccccc3F)cc2)c([N+](=O)[O-])cc1OC` (stereo not drawn), the EC50 with Rhinovirus B was more than 5 µM. Further, the cytotoxic concentration (CC50) in series [1] stood at 5 µM. Further, the result with Rhinovirus A was inactive.

Turning to `COc1ccc(-c2ccc(C(O)Cc3cc(OC)c(OC)cc3[N+](=O)[O-])cc2)cc1` (stereo not drawn), the EC50 in the series with Rhinovirus B is more than 244 µM. Moreover, in series [1], the CC50 was more than 244 µM. Moreover, the result with Rhinovirus A was inactive.

On to `COc1cc(CC(O)c2ccc(-c3cccs3)cc2)c([N+](=O)[O-])cc1OC` (stereo not drawn), for which the EC50 with Rhinovirus B turned out to be 1.6 µM. Moreover, in series [1], the CC50 came out at 11 µM. Moreover, the selectivity ratio in series [2] worked out at 6.9. Besides, the result in the series on Rhinovirus A was inactive.

As for `COc1cc(CC(O)c2ccc(-c3cccc(CO)c3)cc2)c([N+](=O)[O-])cc1OC` (stereo not drawn), the EC50 with Rhinovirus B is 1.4 µM. Also, in series [1], the CC50 amounted to 6 µM. Also, in series [2], the selectivity ratio is 4.3. Moreover, the result in the series on Rhinovirus A was inactive.

In the case of `COc1cc(CC(O)c2ccc(-c3ccncc3)cc2)c([N+](=O)[O-])cc1OC` (stereo not drawn), in the series on Rhinovirus B, the concentration giving a half-maximal response (EC50) was determined as 3.4 µM. Moreover, the CC50 in series [1] is more than 263 µM. In series [2], the selectivity ratio is more than 77.3. The result with Rhinovirus A was inactive.

`COc1cc(CC(O)c2ccc(-c3ccc(CO)cc3)cc2)c([N+](=O)[O-])cc1OC` (stereo not drawn): the EC50 in the series on Rhinovirus B is more than 244 µM. The cytotoxic concentration (CC50) in series [1] is more than 244 µM. Besides, in the series on Rhinovirus A, the outcome was inactive.

With `COc1cc(CC(O)c2cccc(-c3ccc(Cl)cc3)c2)c([N+](=O)[O-])cc1OC` (stereo not drawn), in the series on Rhinovirus B, the EC50 is more than 5 µM. Further, the CC50 in series [1] is 5 µM. Also, in the series with Rhinovirus A, the result was inactive.

As to `COc1cc(CC(O)c2ccc(-c3cccnc3)cc2)c([N+](=O)[O-])cc1OC` (stereo not drawn), in the series with Rhinovirus B, the EC50 is 2 µM. The CC50 in series [1] was more than 263 µM. Besides, in series [2], the selectivity ratio is more than 132. For the same compound, in the series with Rhinovirus A, the outcome was inactive.

On to `COc1cc(CC(O)c2cccc(-c3ccc(C#N)cc3)c2)c([N+](=O)[O-])cc1OC` (stereo not drawn), for which the EC50 with Rhinovirus B was more than 9.3 µM. Moreover, in series [1], the 50% cytotoxic concentration (CC50) was determined as 9.3 µM. In addition, the outcome with Rhinovirus A was inactive.

Consider `COc1cc(CC(O)c2ccc(-c3cccc(Cl)c3)cc2)c([N+](=O)[O-])cc1OC` (stereo not drawn), for which the EC50 in the series on Rhinovirus B came out at 1.7 µM. Further, in series [1], the 50% cytotoxic concentration (CC50) is 5.9 µM. In series [2], the selectivity ratio turned out to be 3.5. The outcome with Rhinovirus A was inactive.

Consider `COc1cc(CC(O)c2ccc(-c3ccc(C=O)cc3)cc2)c([N+](=O)[O-])cc1OC` (stereo not drawn), for which the half-maximal effective concentration (EC50) in the series on Rhinovirus B is more than 245 µM. Further, the CC50 in series [1] was more than 245 µM. In the series with Rhinovirus A, the result was inactive.

As to `COc1cc(CC(O)c2ccc(-c3ccc(Br)cc3)cc2)c([N+](=O)[O-])cc1OC` (stereo not drawn), in the series on Rhinovirus B, the EC50 was more than 4.3 µM. The CC50 in series [1] was 4.3 µM. The outcome in the series with Rhinovirus A was inactive.

Turning to `COc1cc(CC(O)c2ccc(-c3ccccc3C#N)cc2)c([N+](=O)[O-])cc1OC` (stereo not drawn), the EC50 in the series with Rhinovirus B is more than 9.3 µM. Also, the CC50 in series [1] worked out at 9.3 µM. Also, the result in the series with Rhinovirus A was inactive.

Take `COc1cc(CC(O)c2ccc(-c3cccc(F)c3)cc2)c([N+](=O)[O-])cc1OC` (stereo not drawn): the EC50 with Rhinovirus B came out at 2.2 µM. Moreover, in series [1], the CC50 turned out to be 7.4 µM. Moreover, the selectivity ratio in series [2] is 3.4. Besides, the result in the series with Rhinovirus A was inactive.

For the compound `COc1cc(CC(O)c2ccc(-c3cccc([N+](=O)[O-])c3)cc2)c([N+](=O)[O-])cc1OC` (stereo not drawn), the EC50 with Rhinovirus B was 2.2 µM. The CC50 in series [1] was 5.5 µM. Moreover, in series [2], the selectivity ratio turned out to be 2.5. Also, in the series on Rhinovirus A, the outcome was inactive.

On to `COc1cc(CC(O)c2ccc(-c3ccc(Cl)cc3)cc2)c([N+](=O)[O-])cc1OC` (stereo not drawn), for which, in the series with Rhinovirus B, the EC50 was more than 4.1 µM. Further, the CC50 in series [1] is 4.1 µM. Besides, the result in the series with Rhinovirus A was inactive.

As for `COc1cc(CC(O)c2ccc(-c3ccc(C#N)cc3)cc2)c([N+](=O)[O-])cc1OC` (stereo not drawn), the EC50 with Rhinovirus B is more than 4.7 µM. Moreover, the CC50 in series [1] came out at 4.7 µM. For the same compound, the result with Rhinovirus A was inactive.

Regarding `COc1cc(CC(O)c2ccc(-c3ccc(C)cc3)cc2)c([N+](=O)[O-])cc1OC` (stereo not drawn), the EC50 in the series on Rhinovirus B is more than 4.7 µM. Besides, the CC50 in series [1] is 4.7 µM. Moreover, the result with Rhinovirus A was inactive.

For `COc1cc(CC(O)c2ccc(-c3ccccc3)cc2)c([N+](=O)[O-])cc1OC` (stereo not drawn), in the series on Rhinovirus B, the EC50 was 1.97 µM.

In the case of `COc1cc(CC(O)c2ccc(C#N)cc2)c([N+](=O)[O-])cc1OC` (stereo not drawn), the EC50 in the series with Rhinovirus B is 2.2 µM. The CC50 in series [1] amounted to 104 µM.

`COc1cc(CC(O)c2ccc(-c3ccc([N+](=O)[O-])cc3)cc2)c([N+](=O)[O-])cc1OC` (stereo not drawn): the EC50 with Rhinovirus B was 4.7 µM. The CC50 in series [1] came to 21 µM. In addition, the selectivity ratio in series [2] is 4.5. Also, the outcome with Rhinovirus A was inactive.

For the compound `COc1cc(CC(O)c2ccc(-c3ccccc3[N+](=O)[O-])cc2)c([N+](=O)[O-])cc1OC` (stereo not drawn), in the series with Rhinovirus B, the EC50 was determined as 1.5 µM. Besides, in series [1], the CC50 was found to be 9.5 µM. The selectivity ratio in series [2] is 6.3. The outcome with Rhinovirus A was inactive.

As to `COc1cc(CC(O)c2ccc(-c3ccoc3)cc2)c([N+](=O)[O-])cc1OC` (stereo not drawn), in the series on Rhinovirus B, the EC50 was found to be 1.6 µM. Moreover, the CC50 in series [1] worked out at 5.3 µM. Also, in series [2], the selectivity ratio came to 3.3. Further, the outcome in the series with Rhinovirus A was inactive.

As to `Cc1cc(CCCOc2c(C)cc(-c3noc(C(F)(F)F)n3)cc2C)on1` [PLECONARIL], the EC50 in the series on Rhinovirus B is 0.2 µM. In series [1], the CC50 was 50.2 µM. In addition, in the series with Rhinovirus A, the result was inactive.

For `COc1cc(CC(O)c2ccc(-c3ccccc3CO)cc2)c([N+](=O)[O-])cc1OC` (stereo not drawn), the EC50 in the series with Rhinovirus B stood at 3 µM. The CC50 in series [1] was 24 µM. The selectivity ratio in series [2] was determined as 8. The result in the series with Rhinovirus A was inactive.

In the case of `COc1cc(CC(O)c2ccc(-c3cccc(C#N)c3)cc2)c([N+](=O)[O-])cc1OC` (stereo not drawn), the EC50 in the series on Rhinovirus B was determined as 1.4 µM. The CC50 in series [1] was 5.2 µM. Further, the selectivity ratio in series [2] came out at 3.7. Besides, the result in the series with Rhinovirus A was inactive.

For `COc1cc(CC(O)c2ccc(-c3ccc(C(F)(F)F)cc3)cc2)c([N+](=O)[O-])cc1OC` (stereo not drawn), the EC50 in the series with Rhinovirus B is more than 6 µM. Besides, the CC50 in series [1] stood at 4.1 µM. In addition, the result with Rhinovirus A was inactive.
